In PubChem BioAssay (NCI):
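Compound exposure: 48 hours, 5 concentrations, 96-well plates. Abbreviation: GI50, concentration required for 50% inhibition of growth. Definition used: TGI = concentration required for complete inhibition of growth.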

Legend:
Experiment in all cases: NCI tumour cell line growth inhibition, 48 h
[1] = system: SF-268 CNS
[2] = system: SNB-75 CNS
[3] = system: SN12C renal
[4] = system: OVCAR-8 ovarian
[5] = system: COLO 205 colon
[6] = system: MDA-MB-231 breast
[7] = system: NCI/ADR-RES ovarian
[8] = system: M14 melanoma
[9] = system: SR leukemia
[10] = system: HT29 colon
[11] = system: HS 578T breast
[12] = system: CAKI-1 renal
[13] = system: SF-539 CNS
[14] = system: ACHN renal
[15] = system: TK-10 renal
[16] = system: HCC-2998 colon
[17] = system: DU-145 prostate
[18] = system: UO-31 renal
[19] = system: UACC-257 melanoma
[20] = system: SNB-19 CNS
[21] = system: 786-0 renal
[22] = system: RXF 393 renal
[23] = system: PC-3 prostate
[24] = system: RPMI-8226 leukemia
[25] = system: LOX IMVI melanoma
[26] = system: SK-MEL-2 melanoma
[27] = system: IGROV1 ovarian
[28] = system: MALME-3M melanoma
[29] = system: BT-549 breast
[30] = system: HCT-15 colon
[31] = system: HCT-116 colon
[32] = system: HOP-62 NSCLC
[33] = system: HOP-92 NSCLC
[34] = system: U251 CNS
[35] = system: A498 renal
[36] = system: OVCAR-5 ovarian
[37] = system: OVCAR-3 ovarian
[38] = system: SW-620 colon
[39] = system: EKVX NSCLC
[40] = system: SF-295 CNS
[41] = system: UACC-62 melanoma
[42] = system: SK-OV-3 ovarian
[43] = system: K-562 leukemia
[44] = system: NCI-H226 lung
[45] = system: SK-MEL-5 melanoma
[46] = system: MDA-MB-435
[47] = system: HL-60(TB) leukemia
[48] = system: MOLT-4 leukemia
[49] = system: CCRF-CEM leukemia
[50] = system: NCI-H23 lung
[51] = system: T-47D breast
[52] = system: SK-MEL-28 melanoma

## Nc1nc(-c2cccc([N+](=O)[O-])c2)c(N=Nc2cccc([N+](=O)[O-])c2)s1
[1]
  GI50: > 100 µM
  TGI: > 100 µM
[2]
  GI50: 53 µM
  TGI: > 100 µM
[3]
  GI50: > 100 µM
  TGI: > 100 µM
[4]
  GI50: > 100 µM
  TGI: > 100 µM
[5]
  GI50: > 100 µM
  TGI: > 100 µM
[6]
  GI50: 13.6 µM
  TGI: > 100 µM
[7]
  GI50: > 100 µM
  TGI: > 100 µM
[8]
  GI50: > 100 µM
  TGI: > 100 µM
[9]
  GI50: 19.2 µM
  TGI: > 57.3 µM
[10]
  GI50: > 100 µM
  TGI: > 100 µM
[11]
  GI50: > 100 µM
  TGI: > 100 µM
[12]
  GI50: > 100 µM
  TGI: > 100 µM
[13]
  GI50: > 100 µM
  TGI: > 100 µM
[14]
  GI50: > 100 µM
  TGI: > 100 µM
[15]
  GI50: 46.5 µM
  TGI: > 100 µM
[16]
  GI50: > 100 µM
  TGI: > 100 µM
[17]
  GI50: > 100 µM
  TGI: > 100 µM
[18]
  GI50: > 100 µM
  TGI: > 100 µM
[19]
  GI50: > 100 µM
  TGI: > 100 µM
[20]
  GI50: 57.9 µM
  TGI: > 100 µM
[21]
  GI50: 63 µM
  TGI: > 100 µM
[22]
  GI50: > 100 µM
  TGI: > 100 µM
[23]
  GI50: > 27.2 µM
  TGI: > 100 µM
[24]
  GI50: > 100 µM
  TGI: > 100 µM
[25]
  GI50: > 100 µM
  TGI: > 100 µM
[26]
  GI50: > 92.8 µM
  TGI: > 100 µM
[27]
  GI50: > 100 µM
  TGI: > 100 µM
[28]
  GI50: > 100 µM
  TGI: > 100 µM
[29]
  GI50: 10.4 µM
  TGI: > 100 µM
[30]
  GI50: > 100 µM
  TGI: > 100 µM
[31]
  GI50: > 100 µM
  TGI: > 100 µM
[32]
  GI50: 64.9 µM
  TGI: > 100 µM
[33]
  GI50: 3.79 µM
  TGI: > 100 µM
[34]
  GI50: 4.29 µM
  TGI: > 100 µM
[35]
  GI50: 33.1 µM
  TGI: > 100 µM
[36]
  GI50: > 100 µM
  TGI: > 100 µM
[37]
  GI50: > 100 µM
  TGI: > 100 µM
[38]
  GI50: > 100 µM
  TGI: > 100 µM
[39]
  GI50: > 78.5 µM
  TGI: > 100 µM
[40]
  GI50: > 100 µM
  TGI: > 100 µM
[41]
  GI50: > 100 µM
  TGI: > 100 µM
[42]
  GI50: > 100 µM
  TGI: > 100 µM
[43]
  GI50: 1390 nM
  TGI: > 65 µM
[44]
  GI50: > 100 µM
  TGI: > 100 µM
[45]
  GI50: 56.9 µM
  TGI: > 100 µM
[46]
  GI50: > 100 µM
  TGI: > 100 µM
[47]
  GI50: > 52.6 µM
  TGI: > 92.8 µM
[48]
  GI50: > 25.3 µM
  TGI: > 100 µM
[49]
  GI50: 39.7 µM
  TGI: > 100 µM
[50]
  GI50: > 100 µM
  TGI: > 100 µM
[51]
  GI50: > 100 µM
  TGI: > 100 µM
[52]
  GI50: > 100 µM
  TGI: > 100 µM
